The target in the assay is T1, AR (Homo sapiens, UniProt P10275).
T1 construct: endogenous in cells; host or cells: VCaP cells
T1 sequence (P10275 1-920): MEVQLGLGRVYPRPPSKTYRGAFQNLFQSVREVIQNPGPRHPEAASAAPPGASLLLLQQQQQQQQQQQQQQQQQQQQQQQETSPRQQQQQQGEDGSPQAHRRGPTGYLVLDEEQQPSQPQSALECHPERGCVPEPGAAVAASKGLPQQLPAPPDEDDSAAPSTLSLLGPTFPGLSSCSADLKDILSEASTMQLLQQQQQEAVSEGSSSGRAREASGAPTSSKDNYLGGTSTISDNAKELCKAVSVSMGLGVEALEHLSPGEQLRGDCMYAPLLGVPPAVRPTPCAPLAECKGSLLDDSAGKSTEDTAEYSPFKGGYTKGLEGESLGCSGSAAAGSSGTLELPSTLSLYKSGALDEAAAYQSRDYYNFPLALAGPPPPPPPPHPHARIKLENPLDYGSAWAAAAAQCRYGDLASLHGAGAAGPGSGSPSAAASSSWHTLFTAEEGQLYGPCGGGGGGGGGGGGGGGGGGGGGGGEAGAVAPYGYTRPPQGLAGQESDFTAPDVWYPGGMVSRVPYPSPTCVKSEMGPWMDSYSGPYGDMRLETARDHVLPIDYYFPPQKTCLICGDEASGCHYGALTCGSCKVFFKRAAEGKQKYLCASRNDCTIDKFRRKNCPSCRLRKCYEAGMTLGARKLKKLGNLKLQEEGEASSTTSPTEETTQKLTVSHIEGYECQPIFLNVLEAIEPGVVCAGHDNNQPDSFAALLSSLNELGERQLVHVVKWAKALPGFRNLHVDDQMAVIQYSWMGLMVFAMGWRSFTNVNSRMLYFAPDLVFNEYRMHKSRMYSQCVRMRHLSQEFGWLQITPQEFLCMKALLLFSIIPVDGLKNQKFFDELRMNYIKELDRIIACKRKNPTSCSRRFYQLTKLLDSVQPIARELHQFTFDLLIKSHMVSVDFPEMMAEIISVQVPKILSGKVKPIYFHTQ
Put plainly: VCAP AR Degradation Assay. The conditions noted are these: VCaP cells, 24 h; for DC50: AR ELISA, concentration when AR level = 50% of DMSO control; for Ymin: lowest AR level normalized to DMSO control, given as numbers. It counts as cell-based. As to the method: VCAP AR Degradation Assay. Test compounds were pre-dispensed into a Corning CellBind 96-well clear bottom plate (Cat #3300) using an acoustic dispenser to make a 10-point concentration series at 1:3 dilution for each compound. The final top concentration of each compound was 5 μM. DMSO at a final concentration of 0.1% was used as a control. VCaP cells cultured in DMEM with 8% fetal bovine serum (FBS) were seeded at 50K cells per well in a 200 μL volume into the compound plate and incubated at 37° C. in a C02 incubator for 24 h. The medium was carefully removed from the cells and the plate was placed on ice. One hundred μL of ice-cold 1× cell lysis buffer from Cell Signaling Technologies (Cat #9803) was added to each well of the cells and the plate was incubated at 4° C. on a shaker for 1 h. Fifteen μL of cell lysate was used for AR ELISA detection using a PathScan Total Sandwich AR ELISA kit (Cell Signaling Technology, Cat #12580). AR levels in compound-treated wells were normalized to that of DMSO control and expressed as percent of control (PoC) (y). A Four Parameter Logistic Model (Sigmoidal Dose-Response Model) was used to determine the compound's DC50, and EC50, using the following equation: […]
The lowest measured AR level normalized to DMSO control in response to compound treatment, termed Y value, was used to characterize the compound-mediated AR degradation efficiency.
(In general: In an ELISA, binding on a coated surface is turned into a signal by an enzyme label.)

Each structure is given as a SMILES string. Some results are limits rather than exact numbers.

For `C[C@@H]1C[C@H](CCO[C@H]2CC[C@H](N3C(=S)N(c4cnc(C#N)c(C(F)(F)F)c4)C(=O)C3(C)C)CC2)C[C@H](C)N1CC(=O)Nc1ccc(C2CCC(=O)NC2=O)cc1` (stereo partly drawn) [Cmpd 27, 2-((2R,4r,6S)-4-(2-(((trans)-4-(3-(6-Cyano-5-(trifluoromethyl)pyridin-3-yl)-5,5-dimethyl-4-oxo-2-thioxoimidazolidin-1-yl)cyclohexyl)oxy)ethyl)-2,6-dimethylpiperidin-1-yl)-N-(4-(2,6-dioxopiperidin-3-yl)phenyl)acetamide], the DC50 was ≤ 5 nM and the Ymin was 11 % of DMSO control.

As for `CC1(C)C(=O)N(c2cnc(C#N)c(C(F)(F)F)c2)C(=S)N1[C@H]1CC[C@H](OCCN2CCN(CC(=O)Nc3ccc(C4CCC(=O)NC4=O)cc3)[C@@H](C(F)(F)F)C2)CC1` (stereo partly drawn) [Cmpd 28, 2-((R)-4-(2-(((trans)-4-(3-(6-Cyano-5-(trifluoromethyl)pyridin-3-yl)-5,5-dimethyl-4-oxo-2-thioxoimidazolidin-1-yl)cyclohexyl)oxy)ethyl)-2-(trifluoromethyl)piperazin-1-yl)-N-(4-(2,6-dioxopiperidin-3-yl)phenyl)acetamide], the DC50 is ≤ 5 nM and the Ymin is on record as 20 % of DMSO control.

Consider `C[C@@H]1C[C@@H](CCO[C@H]2CC[C@H](N3C(=S)N(c4cnc(C#N)c(C(F)(F)F)c4)C(=O)C3(C)C)CC2)C[C@H](C)N1CC(=O)Nc1ccc(C2CCC(=O)NC2=O)cc1` (stereo partly drawn) [Cmpd 29, 2-((2R,4s,6S)-4-(2-(((trans)-4-(3-(6-Cyano-5-(trifluoromethyl)pyridin-3-yl)-5,5-dimethyl-4-oxo-2-thioxoimidazolidin-1-yl)cyclohexyl)oxy)ethyl)-2,6-dimethylpiperidin-1-yl)-N-(4-(2,6-dioxopiperidin-3-yl)phenyl)acetamide], for which the DC50 was ≤ 5 nM and the Ymin is 15 % of DMSO control.

In the case of `C[C@@H]1CN(CCCC[C@H]2CC[C@H](N3C(=S)N(c4ccc(C#N)c(C(F)(F)F)c4)C(=O)C3(C)C)CC2)C[C@H](C)N1CC(=O)Nc1ccc(C2CCC(=O)NC2=O)cc1` (stereo partly drawn) [Cmpd 30, 2-((2R,6S)-4-(4-((trans)-4-(3-(4-Cyano-3-(trifluoromethyl)phenyl)-5,5-dimethyl-4-oxo-2-thioxoimidazolidin-1-yl)cyclohexyl)butyl)-2,6-dimethylpiperazin-1-yl)-N-(4-(2,6-dioxopiperidin-3-yl)phenyl)acetamide], the DC50 is ≤ 5 nM and the Ymin is 20 % of DMSO control.

For `CC1(C)C(=O)N(c2ccc(C#N)c(C(F)(F)F)c2)C(=S)N1[C@H]1CC[C@H](OCCCN2CCN(CC(=O)Nc3cccc(C4CCC(=O)NC4=O)c3)[C@@H](C(F)(F)F)C2)CC1` (stereo partly drawn) [Cmpd 31, 2-((R)-4-(3-(((trans)-4-(3-(4-Cyano-3-(trifluoromethyl)phenyl)-5,5-dimethyl-4-oxo-2-thioxoimidazolidin-1-yl)cyclohexyl)oxy)propyl)-2-(trifluoromethyl)piperazin-1-yl)-N-(3-(2,6-dioxopiperidin-3-yl)phenyl)acetamide], the DC50 was ≤ 5 nM and the Ymin is on record as 21 % of DMSO control.

In the case of `CC1(C)C(=O)N(c2cnc(C#N)c(C(F)(F)F)c2)C(=S)N1[C@H]1CC[C@H](OCCCN2CCN(CC(=O)Nc3cccc(C4CCC(=O)NC4=O)c3)[C@@H](C(F)(F)F)C2)CC1` (stereo partly drawn) [Cmpd 32, 2-((R)-4-(3-(((trans)-4-(3-(6-Cyano-5-(trifluoromethyl)pyridin-3-yl)-5,5-dimethyl-4-oxo-2-thioxoimidazolidin-1-yl)cyclohexyl)oxy)propyl)-2-(trifluoromethyl)piperazin-1-yl)-N-(3-(2,6-dioxopiperidin-3-yl)phenyl)acetamide], the DC50 was ≤ 5 nM and the Ymin is on record as 20 % of DMSO control.

For `CC1(C)C(=O)N(c2cnc(C#N)c(C(F)(F)F)c2)C(=S)N1[C@H]1CC[C@H](CCCN2CCN(CC(=O)Nc3ccc(C4CCC(=O)NC4=O)cc3)[C@@H](C(F)(F)F)C2)CC1` (stereo partly drawn) [Cmpd 33, 2-((R)-4-(3-((trans)-4-(3-(6-Cyano-5-(trifluoromethyl)pyridin-3-yl)-5,5-dimethyl-4-oxo-2-thioxoimidazolidin-1-yl)cyclohexyl)propyl)-2-(trifluoromethyl)piperazin-1-yl)-N-(4-(2,6-dioxopiperidin-3-yl)phenyl)acetamide], the DC50 was in the range of 5 to 15 nM and the Ymin is given as 17 % of DMSO control.

With `CC1(C)C(=O)N(c2cnc(C#N)c(C(F)(F)F)c2)C(=S)N1[C@H]1CC[C@H](OCCCN2CCN(CC(=O)Nc3ccc(C4CCC(=O)NC4=O)cc3)[C@@H](C(F)(F)F)C2)CC1` (stereo partly drawn) [Cmpd 34, 2-((R)-4-(3-(((trans)-4-(3-(6-Cyano-5-(trifluoromethyl)pyridin-3-yl)-5,5-dimethyl-4-oxo-2-thioxoimidazolidin-1-yl)cyclohexyl)oxy)propyl)-2-(trifluoromethyl)piperazin-1-yl)-N-(4-(2,6-dioxopiperidin-3-yl)phenyl)acetamide], the DC50 is ≤ 5 nM and the Ymin is 12 % of DMSO control.

For `CC1(C)C(=O)N(c2ccc(C#N)c(C(F)(F)F)c2)C(=S)N1[C@H]1CC[C@H](OCCCN2CCN(CC(=O)Nc3ccc(C4CCC(=O)NC4=O)cc3)[C@@H](C(F)(F)F)C2)CC1` (stereo partly drawn) [Cmpd 35, 2-((R)-4-(3-(((trans)-4-(3-(4-Cyano-3-(trifluoromethyl)phenyl)-5,5-dimethyl-4-oxo-2-thioxoimidazolidin-1-yl)cyclohexyl)oxy)propyl)-2-(trifluoromethyl)piperazin-1-yl)-N-(4-(2,6-dioxopiperidin-3-yl)phenyl)acetamide], the DC50 was ≤ 5 nM and the Ymin is 21 % of DMSO control.

For `CC1(C)C(=O)N(c2ccc(C#N)c(C(F)(F)F)c2)C(=S)N1[C@H]1CC[C@H](CCCN2CCN(CC(=O)Nc3ccc(C4CCC(=O)NC4=O)cc3)[C@@H](C(F)(F)F)C2)CC1` (stereo partly drawn) [Cmpd 36, 2-((R)-4-(3-((trans)-4-(3-(4-Cyano-3-(trifluoromethyl)phenyl)-5,5-dimethyl-4-oxo-2-thioxoimidazolidin-1-yl)cyclohexyl)propyl)-2-(trifluoromethyl)piperazin-1-yl)-N-(4-(2,6-dioxopiperidin-3-yl)phenyl)acetamide], the DC50 fell in the range of 15 to 100 nM and the Ymin was 24 % of DMSO control.

As for `C[C@@H]1C[C@H](OCCC[C@H]2CC[C@H](N3C(=S)N(c4ccc(C#N)c(C(F)(F)F)c4)C(=O)C3(C)C)CC2)C[C@H](C)N1CC(=O)Nc1ccc(C2CCC(=O)NC2=O)cc1` (stereo partly drawn) [Cmpd 37, 2-((2R,4r,6S)-4-(3-((trans)-4-(3-(4-Cyano-3-(trifluoromethyl)phenyl)-5,5-dimethyl-4-oxo-2-thioxoimidazolidin-1-yl)cyclohexyl)propoxy)-2,6-dimethylpiperidin-1-yl)-N-(4-(2,6-dioxopiperidin-3-yl)phenyl)acetamide], the DC50 lay within 15 to 100 nM and the Ymin is reported as 19 % of DMSO control.

With `C[C@@H]1C[C@H](OCCC[C@H]2CC[C@H](N3C(=S)N(c4cnc(C#N)c(C(F)(F)F)c4)C(=O)C3(C)C)CC2)C[C@H](C)N1CC(=O)Nc1ccc(C2CCC(=O)NC2=O)cc1` (stereo partly drawn) [Cmpd 38, 2-((2R,4r,6S)-4-(3-((trans)-4-(3-(6-Cyano-5-(trifluoromethyl)pyridin-3-yl)-5,5-dimethyl-4-oxo-2-thioxoimidazolidin-1-yl)cyclohexyl)propoxy)-2,6-dimethylpiperidin-1-yl)-N-(4-(2,6-dioxopiperidin-3-yl)phenyl)acetamide], the DC50 was 5 to 15 nM and the Ymin is reported as 14 % of DMSO control.

The DC50 is the concentration giving 50% degradation. Lower therefore signals degradation at low concentration.

The values above are taken from patent US20240368118A1, “CEREBLON BINDING COMPOUNDS, COMPOSITIONS THEREOF, AND METHODS OF TREATMENT THEREWITH” (CELGENE CORPORATION, priority 2021, published 2024).
